Assays:
[1] = system: Yeast Edema of the Rat Paw; assay: Yeast edema and determination of pain threshold in the rat paw; type: in vivo; conditions: 3 h; for Volume (increase in paw volume, blank control = 100%): i.g.
Method: test animals are male rats (SIV 50) weighing 100 to 180 g. […] 10 animals belonged to each dosage group.
The volume of the paw is determined according to the method described by Enders and Heidbrink, the pain threshold according to that described by Randall and Selitto (Arch. Int. Pharmacodyn CXI: 409, 1957).
Following initial measurements, […] of a 5% suspension of dried yeast is injected subplantarly into the right paw and the test substances are administered immediately. The blank control group is given Tragacanth mucilage only. After 3 hours the pain threshold and the volume of the paw are determined again.
The mean value of the increase in paw volume of the animals of the blank control after 3 hours is rated 100%, and the mean value of the increase in paw volume of the animals of the substance groups expressed as a percentage thereof. Pain threshold after 3 hours reflects the increase or decrease in percent, compared to the initial value.
In order to be able to calculate the ED50 according to the method by Lichtfield and Wilcoxon (J.P.E.T. 96:99, 1949), those animals in a dose group are considered protected when the paw swelling was at least 40% less than that of the blank control.

in vivo = conditions: mouse
[2] = system: Kaolin Edema of the Rat Paw; assay: Kaolin edema of the rat paw; type: in vivo
Method: test animals used are the same as stated under Example B and up to the beginning of the test, the procedure corresponded to that described under this example.
After an initial measurement, a sterile 25% kaolin suspension was injected (0.05 ml/paw) subplantarly. The test substances are administered immediately, and after 60, 120, and 180 minutes the paw volume is again determined.
Evaluation of the tests was performed as stated under Example C, and the results so obtained presented below: […]

[3] = Summary: calculated ED50 and therapeutic ratio; type: in vivo, rat; conditions: Rattus norvegicus
Method: From the ED50 and LD50 (A) the following therapeutic ratios for this test are calculated: […]

[4] = system: Carrageenin Edema of the Rat Paw; assay: Carrageenin edema of the rat paw; type: in vivo
Method: test animals used are the same as stated under Example B and up to the initial measurement, the procedure corresponded to that described under this example.
After an initial measurement, the test substances are administered and after 60 minutes a 1% Carrageenin suspension is injected subplantarly (0.1 ml/paw). After 60 and 180 minutes the paw volume is again determined. Here, too, the blank control group was treated with the carrier alone.
The increase in the volume of the paw after 60 minutes is considered as the first phase of the biphase edema and that after 180 minutes, as compared to the 60-minute-value, as the second phase. Moreover, the total increase of the paw edema within 180 minutes, as compared to the initial value, is also determined.
Determination of the influence exerted by the substances upon the development of the paw edema and calculation of the ED50 are done as under Example B.

Granulation Tissue = assay: Cotton-pellet test (granulation tissue); type: in vivo; conditions: rat
Method: test animals are male rats (SIV 50) weighing 110 to 200 g. All test animals are kept fasting for 16 to 18 hours prior to the implantation of the pellets; after that food and water were available ad libitum. Each dose level of the chemical tested was administered to 12 animals. The substances were suspended in 1% Tragacanth mucilage and administered intragastrically by means of a stomach tube. The substances to be investigated and the control suspensions are administered once on the operating day following operation, and twice a day on the following 6 days (at intervals of 6 to 8 hours). The type of application and volume of liquid corresponded to that under B.
Under light ether anesthesia 4 sterile cotton pellets were implanted under the skin on the back of the animal. The weight of one pellet was 50 mg ± 0.5 mg. After 7 days treatment, the animals were sacrificed, the pellets removed with the granulation tissue, weighed and then dried in the incubator at +80°C to constant weight. The average dry weight of the granulation tissue of the control group was rated 100%, and deviations of the mean weights of the group treated with the test substance determined as a percentage thereof.
The weight of the animals is measured daily throughout the tests, and the percental increase determined. At the end of some tests, moreover, the suprarenal glands are removed and their weight determined.

[5] = system: Arthritis Induced by the Freund Adjuvant; assay: Adjuvant arthritis; type: in vivo; conditions: rat, i.g., 2 × 60.0 mg/kg
Method: test animals used are the same as described under Example E; food and water is given ad libitum.
On the first day of the test a 0.8% suspension of Mycobacterium butyrium in paraffin (0.05 or 0.1 ml/paw) is injected subplantarly into the left hind paw of the animals. […] From the 19th to the 22nd day the animals showing a reaction are treated intragastrically with the test substances. The right paw having been marked above the ankle-joint, the volume is determined daily from the 19th to the 22nd or 23rd day, according to the process described under Example B.
The volume of liquid, as well as of the carrier administered, corresponded to that described in the above tests.

Granuloma Pouch = assay: Granuloma pouch test; type: in vivo; conditions: rat
Method: Under light ether anesthesia 25 ml of air are injected under the shaved skin of the back. 0.5 ml of croton oil/animal (0.05%) are injected into the pouch formed by the air, and evenly distributed over the back by turning the animal.
On the third day croton oil (3%, 0.5 ml/animal) is again injected into this pouch.
The average dry weights of the granuloma pouches and the quantities of secretion of the groups subjected to treatment are then compared with those of the control group and the percental deviations calculated.
At the end of some tests the suprarenal glands are removed and the weight of these organs is also determined.
The weight of the animals is measured daily and the changes determined as a percentage.

[6] = po, ig., 200 mg/kg, section K, read-out: volume (paw, control = 100%)
[7] = ig., 2×90.0 mg/kg daily, section K

`COCCOC(=N)c1sc2ccccc2c1O` [Example 10] showed a change in vivo at 200 mg/kg ([1]; po, ig., 200 mg/kg, section K) of -49%, a response vs control in vivo at 200 mg/kg [1, 6] of 73% and a change in vivo at 250 mg/kg ([1]; po, ig., 250 mg/kg, section K (control -35)) of -30%. The response vs control in vivo at 250 mg/kg ([1]; po, ig., 250 mg/kg, section K, read-out: volume (paw, control = 100%)) was 33%, the LD50 (in vivo; po) was ~1600 mg/kg and the “60 min. (paw edema)” value ([2]; ig., 200 mg/kg, section K) was 67%. For the same compound, the “120 min. (paw edema)” value ([2]; ig., 200 mg/kg, section K) was 47% and the “180 min. (paw edema)” value ([2]; ig., 200 mg/kg, section K) was 46%.

With `COC(=N)c1sc2ccccc2c1O` [Example 1, Methyl 3-Hydroxy-Benzo[b]Thiopene-2-Carboximidate] the change in vivo at 75 mg/kg ([1]; po, ig., 75 mg/kg, section K (control -23)) was -10%, the response vs control in vivo at 75 mg/kg ([1]; po, ig., 75 mg/kg, section K (control pain -23), read-out: volume (paw, control = 100%)) was 32% and the LD50 (in vivo; po) was > 1600 mg/kg.

With `N=C(NCCN1CCOCC1)c1sc2ccccc2c1O` [Example 33] the change in vivo at 225 mg/kg ([1]; sc., 225 mg/kg, section K (control -10)) was 34%, the response vs control in vivo at 225 mg/kg ([1]; sc., 225 mg/kg, section K, read-out: volume (paw, control = 100%)) was 46% and the LD50 (in vivo; sc) was ~1000 mg/kg.

For `CN(C)CCNC(=N)c1sc2ccccc2c1O` [Example 31], the response vs control in vivo at 200 mg/kg [1, 6] was 75%, the LD50 (in vivo; po) was > 1600 mg/kg and the LD50 (in vivo; sc) was > 800 mg/kg.

In the case of `CCCCC1C(=O)N(c2ccccc2)N(c2ccccc2)C1=O` [Phenylbutazone, 4-n-Butyl-1,2-diphenyl-3,5-dioxo-pyrazolidine], the ED50 [3] is reported as 20.1 mg/kg, the “1st Phase (paw edema)” value ([4]; 60.0 mg/kg) is reported as 114% and the “2nd Phase (paw edema)” value ([4]; 60.0 mg/kg) is reported as 52%. For the same compound, the “3 Hrs. (total paw edema)” value ([4]; 60.0 mg/kg) was 77%, the “1st Phase (paw edema)” value ([4]; 150.0 mg/kg) was 81% and the “2nd Phase (paw edema)” value ([4]; 150.0 mg/kg) was 15%. The “3 Hrs. (total paw edema)” value ([4]; 150.0 mg/kg) was 38%, the “Volume (increase in paw volume, blank control = 100%)” value ([1]; 150.0 mg/kg) was 74% and the “Volume (increase in paw volume, blank control = 100%)” value ([1]; 300.0 mg/kg) was 67%. For the same compound, the “Granulation Tissue % (Dry Weight)” value (Granulation Tissue; i.g., 2 × 90 mg/kg daily) was 78%, the “Increase in Body Weight” value (Granulation Tissue; in vivo, 90 mg/kg) was “not influenced” and the “60 Minutes (paw edema)” value ([2]; 90.0 mg/kg) was 107%. For the same compound, the “120 Minutes (paw edema)” value ([2]; 90.0 mg/kg) was 100%, the “180 Minutes (paw edema)” value ([2]; 90.0 mg/kg) was 81% and the Swelling [5] was 84%. For the same compound, the “Granuloma Pouch Dry Weight” value (Granuloma Pouch; i.g., 2 × 90 mg/kg daily) was 84%, the Secretion (Granuloma Pouch; i.g., 2 × 90 mg/kg daily) was 96% and the “granuloma pouch dry weight %” value (Granuloma Pouch; [7]) was 84%. The secretion % (Granuloma Pouch; [7]) was 96%, the “Increase in Body Weight” value (Granuloma Pouch; in vivo, 90 mg/kg) was “not influenced” and the “increase in body weight %” value (Granuloma Pouch; in vivo, 90 mg/kg) was 57%.
